Measurements: USRE31731E, “Herbicidal 4-trifluoromethyl-4-nitrodiphenyl ethers” (priority 1978, dated 1984)

Tests used:
Type in all cases: in vivo
Monocots [1] = experiment: Herbicidal activity, postemergence, monocot weeds (Table II); conditions: post-emergence, 336 h, about 2 weeks, read-out: % control (percent of plants killed); for pest or weed control at 4483.4 g/ha: 4 lb./A.; for pest or weed control at 2241.7 g/ha: 2 lb./A.
Summary of the method: (§1)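 Seeds planted in soil flats; sprayed immediately after planting (pre) or 2 weeks after germination (post), compound in acetone diluted with water, 50 gal/A carrier volume at rates in lb/A. Phytotoxicity scored about 2 weeks after application as average percent of plants killed.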

soybeans = experiment: Crop tolerance, soybeans; conditions: 50% or less kill of crop at rates giving more than 50% kill of weeds
Experimental: (§2) The following test procedure is employed. Seeds of selected crops and weeds are planted in soil in flats. For preemergence tests, the flats are treated with the test compound immediately after the planting. For postemergence tests, the seeds are allowed to germinate, and after 2 weeks the flats are treated with the test compound. The compound to be evaluated is dissolved in acetone, diluted with water, and sprayed over the flats using a carrier volume equivalent to 50 gallons per acre at the rate of application (pounds per acre, lb/A.) specified in the tables. About 2 weeks after the application of the test compound, the state of growth of the plants is observed and the phytotoxic effect of the compound is evaluated. Table II gives the average percent control achieved by the test compounds in terms of the percent of the plants which are killed by the compounds.
(§3) Following the general test procedure of Example 73, diphenyl ethers are evaluated for significant tolerance (as shown by 50% or less kill of the test crop at levels of application which give more than 50% kill of many or all of the weeds of Example 73) towards some or all of the following common agronomic crops (not all compounds tested against all crops): alfalfa, snapbeans, corn, cotton, cucumbers, peanuts, rape, rice, safflower, soybeans, tomatoes, and wheat.

rice = experiment: Crop tolerance, rice; conditions: 50% or less kill of crop at rates giving more than 50% kill of weeds
Experimental: as §2, §3

cotton = experiment: Crop tolerance, cotton; conditions: 50% or less kill of crop at rates giving more than 50% kill of weeds
Experimental: as §2, §3

Dicots [2] = experiment: Herbicidal activity, preemergence, dicot weeds (Table II); conditions: pre-emergence, 336 h, about 2 weeks, read-out: % control (percent of plants killed); for pest or weed control at 4483.4 g/ha: 4 lb./A.; for pest or weed control at 2241.7 g/ha: 2 lb./A.
Summary of the method: (§4)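 Compound in acetone/water sprayed on seeded soil flats at 50 gal/acre carrier and the stated lb/A rate, either right after planting (preemergence) or 2 weeks after germination (postemergence). About 2 weeks later, percent control recorded as the percentage of plants killed.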

peanuts = experiment: Crop tolerance, peanuts; conditions: 50% or less kill of crop at rates giving more than 50% kill of weeds
Experimental: as §2, §3

Dicots [3] = experiment: Herbicidal activity, postemergence, dicot weeds (Table II); conditions: post-emergence, 336 h, about 2 weeks, read-out: % control (percent of plants killed); for pest or weed control at 4483.4 g/ha: 4 lb./A.; for pest or weed control at 2241.7 g/ha: 2 lb./A.
Summary of the method: as §4

corn = experiment: Crop tolerance, corn; conditions: 50% or less kill of crop at rates giving more than 50% kill of weeds
Experimental: as §2, §3

Monocots [4] = experiment: Herbicidal activity, preemergence, monocot weeds (Table II); conditions: pre-emergence, 336 h, about 2 weeks, read-out: % control (percent of plants killed); for pest or weed control at 4483.4 g/ha: 4 lb./A.; for pest or weed control at 2241.7 g/ha: 2 lb./A.
Summary of the method: as §1

snapbeans = experiment: Crop tolerance, snapbeans; conditions: preemergence; 50% or less kill of crop at rates giving more than 50% kill of weeds
Experimental: as §2, §3

wheat = experiment: Crop tolerance, wheat; conditions: 50% or less kill of crop at rates giving more than 50% kill of weeds
Experimental: as §2, §3

safflower = experiment: Crop tolerance, safflower; conditions: preemergence; 50% or less kill of crop at rates giving more than 50% kill of weeds
Experimental: as §2, §3

[5] = postemergence or on transplanted rice

| Compound | pest or weed control at 4483.4 g/ha (Monocots [1]) [%] | Tolerance to soybeans (soybeans; preemergence) | Tolerance to rice (rice; preemergence) | Tolerance to cotton (cotton; preemergence) | pest or weed control at 4483.4 g/ha (Dicots [2]) [%] | Tolerance to peanuts (peanuts; postemergence) | pest or weed control at 4483.4 g/ha (Dicots [3]) [%] | Tolerance to corn (corn; postemergence) | Tolerance to corn (corn; preemergence) | pest or weed control at 4483.4 g/ha (Monocots [4]) [%] | Tolerance to wheat (wheat; postemergence) | Tolerance to wheat (wheat; preemergence) | pest or weed control at 2241.7 g/ha (Monocots [1]) [%] | pest or weed control at 2241.7 g/ha (Dicots [2]) [%] | Tolerance to peanuts (peanuts; preemergence) | pest or weed control at 2241.7 g/ha (Dicots [3]) [%] | pest or weed control at 2241.7 g/ha (Monocots [4]) [%] | Tolerance to rice (rice; [5]) | further results |
| --- | --- | --- | --- | --- | --- | --- | --- | --- | --- | --- | --- | --- | --- | --- | --- | --- | --- | --- | --- |
| CC(C)Oc1cc(Oc2ccc(C(F)(F)F)cc2Cl)ccc1[N+](=O)[O-] [Example 4] | 80 | Tolerance | Tolerance | Tolerance | 100 | Tolerance | 100 | Tolerance | Tolerance | 98 | Tolerance | Tolerance |  |  |  |  |  |  | Tolerance to snapbeans (snapbeans): Tolerance |
| CCN(CC)c1cc(Oc2ccc(C(F)(F)F)cc2Cl)ccc1[N+](=O)[O-] [Example 21, 2-Chloro-α,α,α-trifluoro-p-tolyl-3-diethylamino-4-nitrophenyl ether] | 74 | Tolerance | Tolerance |  | 99 |  | 96 | Tolerance | Tolerance | 91 | Tolerance |  | 90 | 90 | Tolerance | 94 | 79 |  |  |
| C#CC(C)Oc1cc(Oc2ccc(C(F)(F)F)cc2Cl)ccc1[N+](=O)[O-] (centres unmarked) [Example 30] | 75 | Tolerance | Tolerance | Tolerance | 99 |  | 100 |  |  | 81 | Tolerance |  | 91 | 94 | Tolerance | 100 | 78 | Tolerance |  |
| CC(=O)Oc1cc(Oc2ccc(C(F)(F)F)cc2Cl)ccc1[N+](=O)[O-] [Example 18, 2-Chloro-α,α,α-trifluoro-p-tolyl-3-acetoxy-4-nitrophenyl ether] | 28 | Tolerance |  |  | 100 | Tolerance | 86 | Tolerance |  | 67 | Tolerance | Tolerance | 28 | 100 |  | 98 | 99 | Tolerance |  |
| CCOC(=O)C(C)Oc1cc(Oc2ccc(C(F)(F)F)cc2Cl)ccc1[N+](=O)[O-] (stereo not drawn) [Example 26, 2-Chloro-α,α,α-trifluoro-p-tolyl-3-(1-carbethoxyethoxy)-4-nitrophenyl ether] | 99 | Tolerance |  |  | 100 |  | 100 | Tolerance |  | 98 |  | Tolerance | 93 | 99 |  | 100 | 75 |  | Tolerance to snapbeans (snapbeans): Tolerance |
| CCN(CCO)c1cc(Oc2ccc(C(F)(F)F)cc2Cl)ccc1[N+](=O)[O-] [Example 54] | 79 | Tolerance | Tolerance |  | 75 | Tolerance | 100 | Tolerance | Tolerance | 83 | Tolerance | Tolerance | 71 | 98 |  | 100 | 98 | Tolerance |  |
| CCOc1cc(Oc2ccc(C(F)(F)F)cc2Cl)ccc1[N+](=O)[O-] [Example 3, 2-Chloro-α,α,α-trifluoro-p-tolyl-3-ethoxy-4-nitrophenyl ether] | 99 | Tolerance |  | Tolerance | 99 |  | 100 |  |  | 89 |  |  |  |  | Tolerance |  |  | Tolerance | pest or weed control at 11208.5 g/ha (Monocots [1]; 10 lb./A.): 100%; Tolerance to soybeans (soybeans; postemergence or layby): Tolerance; Tolerance to cotton (cotton; postemergence or layby): Tolerance; Tolerance to safflower (safflower): Tolerance; pest or weed control at 11208.5 g/ha (Dicots [2]; 10 lb./A.): 100%; pest or weed control at 11208.5 g/ha (Dicots [3]; 10 lb./A.): 100%; pest or weed control at 11208.5 g/ha (Monocots [4]; 10 lb./A.): 99% |
